Assay results published in patent publication US20250304582A1, “Bicyclic Ureas As Kinase Inhibitors” (Incyte Corporation, priority 2024, published 2025).

Assays:
[1] = molecular target: T1, catalytic domain (JH1, amino acids 826-1132) of human JAK2 (Homo sapiens, UniProt O60674); test: JAK2 LanthaScreen JH1 Binding Assay; details: 50 nM fluorescent JAK2-JH1 tracer, 2 hours at 25° C.; read-out: JH1 BIND (EX. A)
T1 construct: catalytic domain (JH1, amino acids 826-1132) of human JAK2; FLAG (N); purchased Carna Biosciences 08-445-20N; host or cells: baculovirus expression system
Summary of the method: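 FLAG-tagged biotinylated JAK2 JH1 (1.5 nM) was incubated 2 h at 25° C with compound, 50 nM fluorescent tracer and 0.5 nM Streptavidin-Tb in Tris pH 7.5 buffer. Tracer displacement read by TR-FRET; nonspecific binding defined with 2 mM ATP. IC50 from four-parameter fit.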

[2] = molecular target: T2, catalytic domain (JH1, amino acids 808-1132) of human JAK2 (Homo sapiens, UniProt O60674); test: JAK2 HTRF Enzyme Activity Assay; format: biochemical; details: ATP (30 μM or 1 mM; not stated which for the table), 60 minutes at 25° C.; read-out: JAK2 HTRF (Ex. D)
T2 construct: catalytic domain (JH1, amino acids 808-1132) of human JAK2; His (N); purchased BPS Bioscience 40450; host or cells: baculovirus expression system
Summary of the method: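 N-terminal His-tagged, baculovirus-expressed JH1 domain (0.015 nM) reacts 60 min at 25 °C with 500 nM biotinylated peptide and 30 μM or 1 mM ATP in Tris pH 7.5/10 mM MgCl2. Phosphorylation is detected by HTRF with Eu-anti-phosphotyrosine (PY20) and streptavidin-APC after EDTA stop. IC50 comes from four-parameter fits.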

[3] = molecular target: T3, pseudo-kinase domain (JH2, amino-acids 536-812) of human V617F mutant JAK2 (Homo sapiens, UniProt O60674, F794H/V617F/W659A/W777A); test: JAK2 LanthaScreen JH2-V617F Binding Assay; details: 50 nM Fluorescent JAK2-JH2 Tracer, 1 hour at 25° C.; read-out: JH2 BIND V617F (Ex. C)
T3 construct: JH2, amino-acids 536-812 with 3 surface mutations W659A, W777A, F794H; His (C); purchased BPS Bioscience 79498; host or cells: baculovirus expression system
Summary of the method: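 Biotinylated His-Avi-tagged JH2 construct (536-812, W659A/W777A/F794H) at 0.26 nM, with 50 nM fluorescent JH2 tracer and 0.25 nM streptavidin-Tb, in pH 7.5 Tris/MgCl2 buffer; 1 h at 25° C. Non-specific binding defined with 2 mM ATP. IC50 derived from TR-FRET signal by four-parameter dose-response fit.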

[4] = molecular target: T4, pseudo-kinase domain (JH2, amino-acids 536-812) of human Wild Type JAK2 (Homo sapiens, UniProt O60674, F794H/W659A/W777A); test: JAK2 LanthaScreen JH2-WT Binding Assay; details: 50 nM Fluorescent JAK2-JH2 Tracer, 1 hour at 25° C.; read-out: JH2 BIND WT (EX. B)
T4 construct: JH2, amino-acids 536-812 with 3 surface mutations W659A, W777A, F794H; His (C); purchased BPS Bioscience 79463; host or cells: baculovirus expression system
Summary of the method: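 JH2 domain (0.145 nM; His-Avi-tagged, biotinylated, baculovirus-expressed) incubated 1 h at 25° C. with compounds, 50 nM fluorescent JH2 tracer and 0.25 nM streptavidin-Tb in pH 7.5 Tris buffer with MgCl2, EGTA, DTT. Non-specific binding defined with 2 mM ATP. TR-FRET tracer displacement read; IC50 from four-parameter fit.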

T2 sequence (O60674 808-1132): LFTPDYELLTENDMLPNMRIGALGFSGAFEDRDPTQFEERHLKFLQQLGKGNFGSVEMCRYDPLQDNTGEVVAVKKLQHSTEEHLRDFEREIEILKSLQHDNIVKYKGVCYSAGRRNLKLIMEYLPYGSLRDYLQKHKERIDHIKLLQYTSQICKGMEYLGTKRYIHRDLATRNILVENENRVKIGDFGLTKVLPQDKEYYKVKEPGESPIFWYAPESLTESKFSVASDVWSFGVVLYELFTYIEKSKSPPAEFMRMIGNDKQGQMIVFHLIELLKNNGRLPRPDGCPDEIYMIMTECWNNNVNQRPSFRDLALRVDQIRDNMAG
T1 sequence (O60674 826-1132): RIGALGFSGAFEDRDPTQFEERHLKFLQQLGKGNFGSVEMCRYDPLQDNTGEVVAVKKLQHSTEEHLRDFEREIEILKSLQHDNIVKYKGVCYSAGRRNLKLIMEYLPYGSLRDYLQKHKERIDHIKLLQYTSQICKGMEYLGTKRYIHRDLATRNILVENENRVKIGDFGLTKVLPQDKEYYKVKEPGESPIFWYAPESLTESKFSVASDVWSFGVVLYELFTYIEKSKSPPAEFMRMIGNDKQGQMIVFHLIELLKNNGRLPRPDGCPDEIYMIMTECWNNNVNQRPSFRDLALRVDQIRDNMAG
T4 sequence (O60674 536-812 W659A/W777A/F794H): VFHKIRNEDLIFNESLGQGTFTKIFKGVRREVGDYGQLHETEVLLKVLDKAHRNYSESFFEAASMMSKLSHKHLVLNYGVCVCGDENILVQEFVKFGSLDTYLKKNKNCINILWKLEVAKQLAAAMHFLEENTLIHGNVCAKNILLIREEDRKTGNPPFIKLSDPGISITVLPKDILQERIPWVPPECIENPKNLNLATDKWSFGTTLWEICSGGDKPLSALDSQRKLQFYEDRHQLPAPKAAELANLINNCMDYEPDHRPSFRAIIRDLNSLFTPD
T3 sequence (O60674 536-812 V617F/W659A/W777A/F794H): as the sequence (O60674 536-812 W659A/W777A/F794H) above, with V82F counted along it

| SMILES | IC50 [1] [nM] | IC50 [2] [nM] | IC50 [3] [nM] | IC50 [4] [nM] |
| --- | --- | --- | --- | --- |
| [2H]C([2H])([2H])n1c(=O)n([C@@H]2CC[C@@H](NC(=O)OC)C2)c2cc(Nc3ccc4cc(F)cc(C(F)(F)F)c4n3)ncc21 [Example 27, Methyl ((1R,3R)-3-(6-((6-fluoro-8-(trifluoromethyl)quinolin-2-yl)amino)-3-(methyl-d3)-2-oxo-2,3-dihydro-1H-imidazo[4,5-c]pyridin-1-yl)cyclopentyl)carbamate] | > 1000 | > 1000 | ≤ 10 | ≤ 10 |
| [2H]C([2H])([2H])n1c(=O)n([C@@H]2CC[C@@H](NC(=O)OC)C2)c2cc(Nc3ccc4cncc(C)c4n3)ncc21 [Example 28, Methyl ((1R,3R)-3-(3-(methyl-d3)-6-((8-methyl-1,6-naphthyridin-2-yl)amino)-2-oxo-2,3-dihydro-1H-imidazo[4,5-c]pyridin-1-yl)cyclopentyl)carbamate] | > 1000 | > 1000 | ≤ 10 | ≤ 10 |
| [2H]C([2H])([2H])n1c(=O)n([C@@H]2CC[C@@H](NC(=O)OC)C2)c2cc(Nc3cc(C(C)(C)O)c4nccc(C)c4n3)ncc21 [Example 29, Methyl ((1R,3R)-3-(6-((4-(2-hydroxypropan-2-yl)-8-methyl-1,5-naphthyridin-2-yl)amino)-3-(methyl-d3)-2-oxo-2,3-dihydro-1H-imidazo[4,5-c]pyridin-1-yl)cyclopentyl)carbamate] | > 1000 | > 1000 | ≤ 10 | ≤ 10 |
| [2H]C([2H])([2H])n1c(=O)n([C@@H]2CC[C@@H](NC(=O)OC)C2)c2cc(Nc3ccc4ncc(C(C)C(F)(F)F)n4n3)ncc21 (stereo partly drawn) [Example 30, Methyl ((1R,3R)-3-(3-(methyl-d3)-2-oxo-6-((3-(1,1,1-trifluoropropan-2-yl)imidazo[1,2-b]pyridazin-6-yl)amino)-2,3-dihydro-1H-imidazo[4,5-c]pyridin-1-yl)cyclopentyl)carbamate] | > 1000 | > 1000 | ≤ 10 | ≤ 10 |
| [2H]C([2H])([2H])n1c(=O)n([C@@H]2CC[C@@H](NC(=O)OC)C2)c2cc(Nc3ccc4ncc(C(F)(F)F)n4n3)ncc21 [Example 31, Methyl ((1R,3R)-3-(3-(methyl-d3)-2-oxo-6-((3-(trifluoromethyl)imidazo[1,2-b]pyridazin-6-yl)amino)-2,3-dihydro-1H-imidazo[4,5-c]pyridin-1-yl)cyclopentyl)carbamate] | > 1000 | > 1000 | ≤ 10 | ≤ 10 |
| [2H]C([2H])([2H])n1c(=O)n([C@@H]2CC[C@@H](NC(=O)OC)C2)c2cc(Nc3ccc4cccc([N+](=O)[O-])c4n3)ncc21 [Example 35, Methyl ((1R,3R)-3-(3-(methyl-d3)-6-((8-nitroquinolin-2-yl)amino)-2-oxo-2,3-dihydro-1H-imidazo[4,5-c]pyridin-1-yl)cyclopentyl)carbamate] | > 1000 | > 1000 | ≤ 10 | ≤ 10 |
| [2H]C([2H])([2H])n1c(=O)n([C@@H]2CC[C@@H](NC(=O)OC)C2)c2cc(Nc3ccc4nccc(C#N)c4n3)ncc21 [Example 36, Methyl ((1R,3R)-3-(6-((8-cyano-1,5-naphthyridin-2-yl)amino)-3-(methyl-d3)-2-oxo-2,3-dihydro-1H-imidazo[4,5-c]pyridin-1-yl)cyclopentyl)carbamate] | > 1000 | > 1000 | ≤ 10 | ≤ 10 |
| [2H]C([2H])([2H])n1c(=O)n([C@@H]2CC[C@@H](NC(=O)OC)C2)c2cc(Nc3cnc4cccc(C#N)c4n3)ncc21 [Example 37, Methyl ((1R,3R)-3-(6-((8-cyanoquinoxalin-2-yl)amino)-3-(methyl-d3)-2-oxo-2,3-dihydro-1H-imidazo[4,5-c]pyridin-1-yl)cyclopentyl)carbamate] | 100 to 500 | 100 to 500 | 10 to 100 | ≤ 10 |
| COC(=O)N[C@@H]1CC[C@@H](n2c(=O)n(C)c3cnc(Nc4ccc5cccc(C(F)F)c5n4)cc32)C1 [Example 38, Methyl ((1R,3R)-3-(6-((8-(difluoromethyl)quinolin-2-yl)amino)-3-methyl-2-oxo-2,3-dihydro-1H-imidazo[4,5-c]pyridin-1-yl)cyclopentyl)carbamate] | > 1000 | > 1000 | ≤ 10 | ≤ 10 |
| COC(=O)N[C@@H]1CC[C@@H](n2c(=O)n(C)c3cnc(Nc4ccc5cccc(C)c5n4)cc32)C1 [Example 39, Methyl ((1R,3R)-3-(3-methyl-6-((8-methylquinolin-2-yl)amino)-2-oxo-2,3-dihydro-1H-imidazo[4,5-c]pyridin-1-yl)cyclopentyl)carbamate] | > 1000 | > 1000 | 10 to 100 | ≤ 10 |
| COC(=O)N[C@H]1CC[C@H](n2c(=O)n(C)c3cnc(Nc4ccc5cccc(Cl)c5n4)cc32)C1 [Example 40, Methyl ((1S,3S)-3-(6-((8-chloroquinolin-2-yl)amino)-3-methyl-2-oxo-2,3-dihydro-1H-imidazo[4,5-c]pyridin-1-yl)cyclopentyl)carbamate] | > 1000 | > 1000 | 10 to 100 | ≤ 10 |
| COC(=O)N[C@@H]1CC[C@@H](n2c(=O)n(C)c3cnc(Nc4ccc5cccc(C(F)(F)F)c5n4)cc32)C1 [Example 41, Methyl ((1R,3R)-3-(3-methyl-2-oxo-6-((8-(trifluoromethyl)quinolin-2-yl)amino)-2,3-dihydro-1H-imidazo[4,5-c]pyridin-1-yl)cyclopentyl)carbamate] | > 1000 | > 1000 | ≤ 10 | ≤ 10 |
| COC(=O)N[C@@H]1CC[C@@H](n2c(=O)n(C)c3cnc(Nc4ccc5ncc(C#N)n5n4)cc32)C1 [Example 42, Methyl ((1R,3R)-3-(6-((3-cyanoimidazo[1,2-b]pyridazin-6-yl)amino)-3-methyl-2-oxo-2,3-dihydro-1H-imidazo[4,5-c]pyridin-1-yl)cyclopentyl)carbamate] | > 1000 | > 1000 | ≤ 10 | ≤ 10 |
| COC(=O)N[C@@H]1CC[C@@H](n2c(=O)n(C)c3cnc(Nc4ccc5cccc(C#N)c5n4)cc32)C1 [Example 43, Methyl ((1R,3R)-3-(6-((8-cyanoquinolin-2-yl)amino)-3-methyl-2-oxo-2,3-dihydro-1H-imidazo[4,5-c]pyridin-1-yl)cyclopentyl)carbamate] | > 1000 | > 1000 | ≤ 10 | ≤ 10 |
| COC(=O)N[C@@H]1CC[C@@H](n2c(=O)n(C)c3cnc(Nc4ccc5ccc(C#N)cc5n4)cc32)C1 [Example 44, Methyl ((1R,3R)-3-(6-((7-cyanoquinolin-2-yl)amino)-3-methyl-2-oxo-2,3-dihydro-1H-imidazo[4,5-c]pyridin-1-yl)cyclopentyl)carbamate] | > 1000 | > 1000 | 100 to 500 | 100 to 500 |
| COC(=O)N[C@@H]1CC[C@@H](n2c(=O)n(C)c3cnc(Nc4ccc5cc(C#N)ccc5n4)cc32)C1 [Example 45, Methyl ((1R,3R)-3-(6-((6-cyanoquinolin-2-yl)amino)-3-methyl-2-oxo-2,3-dihydro-1H-imidazo[4,5-c]pyridin-1-yl)cyclopentyl)carbamate] | > 1000 | > 1000 | 100 to 500 | 10 to 100 |
| [2H]C([2H])([2H])n1c(=O)n([C@@H]2CC[C@@H](NC(=O)OC)C2)c2cc(Nc3ccc4c(C(C)(C)O)ccc(C(F)(F)F)c4n3)ncc21 [Example 47, Methyl ((1R,3R)-3-(6-((5-(2-hydroxypropan-2-yl)-8-(trifluoromethyl)quinolin-2-yl)amino)-3-(methyl-d3)-2-oxo-2,3-dihydro-1H-imidazo[4,5-c]pyridin-1-yl)cyclopentyl)carbamate] | > 1000 | > 1000 | ≤ 10 | ≤ 10 |
